In patent publication US8962608B2, “Cycloalkylnitrile pyrazole carboxamides as janus kinase inhibitors” (Merck Sharp & Dohme Corp., priority 2011, dated 2015) one finds IC50 data, which are given here for 26 compounds.

pIC50: −log10 of the molar value.

The target of the first experiment is JAK1 (recombinant purified GST-tagged catalytic domain) (Homo sapiens (Human), UniProt P23458). Description: biochemical.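 Further: biochemical assay with HTRF read-out.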
Chain of JAK1 (recombinant purified GST-tagged catalytic domain) (P23458 875-1153): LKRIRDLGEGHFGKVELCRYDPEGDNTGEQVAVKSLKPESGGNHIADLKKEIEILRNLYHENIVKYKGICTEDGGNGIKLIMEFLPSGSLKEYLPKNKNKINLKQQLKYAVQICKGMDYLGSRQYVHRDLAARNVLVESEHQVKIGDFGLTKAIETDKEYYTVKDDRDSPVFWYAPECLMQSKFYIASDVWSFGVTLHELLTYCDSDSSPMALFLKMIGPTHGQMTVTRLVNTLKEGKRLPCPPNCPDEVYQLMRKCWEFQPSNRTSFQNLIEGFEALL
For `N#C[C@H]1C[C@H](O)CCC1n1cc(C(N)=O)c(Nc2ccccc2)n1` (mixture of isomers) [Example 2-2, 1-[(1S,2S,4R and 1R,2R,4S)-2-cyano-4-hydroxycyclohexyl]-3-(phenylamino)-1H-pyrazole-4-carboxamide], the pIC50 was 8.22.

Regarding `COC(=O)C1CC[C@H](C#N)C(n2cc(C(N)=O)c(Nc3ccccc3)n2)C1` (mixture of isomers) [Example 2-4, methyl (3R,4R and 3S,4S)-3-[4-carbamoyl-3-(phenylamino)-1H-pyrazol-1-yl]-4-cyanocyclohexanecarboxylate], the pIC50 was 6.37.

In the case of `N#C[C@@H]1CCC[C@@H](O)C1n1cc(C(N)=O)c(Nc2ccccc2)n1` (mixture of isomers) [Example 2-5, 1-[(1R,2R,6R and 1S,2S,6S)-2-cyano-6-hydroxycyclohexyl]-3-(phenylamino)-1H-pyrazole-4-carboxamide], the pIC50 was 6.15.

On to `N#C[C@H]1CCC[C@@H](O)C1n1cc(C(N)=O)c(Nc2ccccc2)n1` (mixture of isomers) [Example 2-6, 1-[(1R,2S,6R and 1S,2R,6S)-2-cyano-6-hydroxycyclohexyl]-3-(phenylamino)-1H-pyrazole-4-carboxamide], for which the pIC50 is 6.43.

As to `N#C[C@H]1CCC[C@H](O)C1n1cc(C(N)=O)c(Nc2ccccc2)n1` (mixture of isomers) [Example 2-7, 1-[(1R,2S,6S and 1S,2R,6R)-2-cyano-6-hydroxycyclohexyl]-3-(phenylamino)-1H-pyrazole-4-carboxamide], the pIC50 was 6.77.

The target of the next experiment is JAK2 (recombinant purified GST-tagged catalytic domain) (Homo sapiens (Human), UniProt O60674). Description: biochemical.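 Further: biochemical JAK kinase assay with HTRF detection.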
Chain of JAK2 (recombinant purified GST-tagged catalytic domain) (O60674 849-1124): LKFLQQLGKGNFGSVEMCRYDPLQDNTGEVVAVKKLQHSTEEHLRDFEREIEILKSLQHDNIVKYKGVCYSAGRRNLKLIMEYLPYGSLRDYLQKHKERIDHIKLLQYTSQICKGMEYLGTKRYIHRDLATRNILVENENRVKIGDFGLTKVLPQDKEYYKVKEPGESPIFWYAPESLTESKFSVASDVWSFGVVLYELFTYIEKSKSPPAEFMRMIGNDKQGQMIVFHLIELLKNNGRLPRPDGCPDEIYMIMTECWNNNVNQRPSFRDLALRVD
Consider `N#C[C@H]1C[C@H](O)CCC1n1cc(C(N)=O)c(Nc2ccccc2)n1` (mixture of isomers) [Example 2-2, 1-[(1S,2S,4R and 1R,2R,4S)-2-cyano-4-hydroxycyclohexyl]-3-(phenylamino)-1H-pyrazole-4-carboxamide], for which the pIC50 is 7.15.

As to `COC(=O)C1CC[C@H](C#N)C(n2cc(C(N)=O)c(Nc3ccccc3)n2)C1` (mixture of isomers) [Example 2-4, methyl (3R,4R and 3S,4S)-3-[4-carbamoyl-3-(phenylamino)-1H-pyrazol-1-yl]-4-cyanocyclohexanecarboxylate], the pIC50 was below 5.82.

As for `N#C[C@@H]1CCC[C@@H](O)C1n1cc(C(N)=O)c(Nc2ccccc2)n1` (mixture of isomers) [Example 2-5, 1-[(1R,2R,6R and 1S,2S,6S)-2-cyano-6-hydroxycyclohexyl]-3-(phenylamino)-1H-pyrazole-4-carboxamide], the pIC50 is below 5.82.

On to `N#C[C@H]1CCC[C@@H](O)C1n1cc(C(N)=O)c(Nc2ccccc2)n1` (mixture of isomers) [Example 2-6, 1-[(1R,2S,6R and 1S,2R,6S)-2-cyano-6-hydroxycyclohexyl]-3-(phenylamino)-1H-pyrazole-4-carboxamide], for which the pIC50 was 6.00.

In the case of `N#C[C@H]1CCC[C@H](O)C1n1cc(C(N)=O)c(Nc2ccccc2)n1` (mixture of isomers) [Example 2-7, 1-[(1R,2S,6S and 1S,2R,6R)-2-cyano-6-hydroxycyclohexyl]-3-(phenylamino)-1H-pyrazole-4-carboxamide], the pIC50 is 6.49.

Take `CN(C)[C@H]1CC[C@H](n2cc(C(N)=O)c(Nc3ccc(C(F)(F)F)cc3)n2)[C@@H](C#N)C1` (single isomer, unassigned) [Example 28-188, 1-[(1S,2S,4S or 1R,2R,4R)-2-cyano-4-(dimethylamino)cyclohexyl]-3-{[4-(trifluoromethyl)phenyl]amino}-1H-pyrazole-4-carboxamide]: the pIC50 was 7.85.

Take `CN(C)[C@@H]1CC[C@H](n2cc(C(N)=O)c(Nc3ccc(C(F)(F)F)cc3)n2)[C@@H](C#N)C1` (single isomer, unassigned) [Example 28-189, 1-[(1S,2S,4R or 1R,2R,4S)-2-cyano-4-(dimethylamino)cyclohexyl]-3-{[4-(trifluoromethyl)phenyl]amino}-1H-pyrazole-4-carboxamide]: the pIC50 was 7.68.

Regarding `CC1(C)CN([C@H]2CC[C@H](n3cc(C(N)=O)c(Nc4ccc(C(F)(F)F)cc4)n3)[C@@H](C#N)C2)C1` (single isomer, unassigned) [Example 28-202, 1-[(1S,2S,4S or 1R,2R,4R)-2-cyano-4-(3,3-dimethylazetidin-1-yl)cyclohexyl]-3-{[4-(trifluoromethyl)phenyl]amino}-1H-pyrazole-4-carboxamide], the pIC50 was 7.41.

Turning to `CC1(C)CN([C@@H]2CC[C@H](n3cc(C(N)=O)c(Nc4ccc(C(F)(F)F)cc4)n3)[C@@H](C#N)C2)C1` (single isomer, unassigned) [Example 28-203, 1-[(1S,2S,4R or 1R,2R,4S)-2-cyano-4-(3,3-dimethylazetidin-1-yl)cyclohexyl]-3-{[4-(trifluoromethyl)phenyl]amino}-1H-pyrazole-4-carboxamidc], the pIC50 was 6.55.

For the compound `CC1(N[C@H]2CCC(n3cc(C(N)=O)c(Nc4ccc(Cl)cc4)n3)[C@@H](C#N)C2)COC1` (single isomer, unassigned) [Example 28-207, 3-[(4-chlorophenyl)amino]-1-{(1S,2S,4S or 1R,2R,4R)-2-cyano-4-[(3-methyloxetan-3-yl)amino]cyclohexyl}-1H-pyrazole-4-carboxamide], the pIC50 is 7.66.

For the compound `CC(C)(N[C@H]1CCC(n2cc(C(N)=O)c(Nc3ccccc3)n2)[C@@H](C#N)C1)C1CC1` (single isomer, unassigned) [Example 28-214, 1-{(1S,2S,4S or 1R,2R,4R)-2-cyano-4-[(1-cyclopropyl-1-methylethyl)amino]cyclohexyl}-3-(phenylamino)-1H-pyrazole-4-carboxamide], the pIC50 is 7.42.

Consider `CC(C)(C)N[C@H]1CCC(n2cc(C(N)=O)c(Nc3ccccc3)n2)[C@@H](C#N)C1` (single isomer, unassigned) [Example 28-215, 1-[(1S,2S,4S or 1R,2R,4R)-4-(tert-butylamino)-2-cyanocyclohexyl]-3-(phenylamino)-1H-pyrazole-4-carboxamide], for which the pIC50 is 7.55.

With `CC1(CN[C@H]2CCC(n3cc(C(N)=O)c(Nc4ccc(Cl)cc4)n3)[C@@H](C#N)C2)COC1` (single isomer, unassigned) [Example 28-217, 3-[(4-chlorophenyl)amino]-1-[(1S,2S,4S or 1R,2R,4R)-2-cyano-4-{[(3-methyloxetan-3-yl)methyl]amino}cyclohexyl]-1H-pyrazole-4-carboxamide], the pIC50 was 7.33.

In the case of `CN([C@H]1CCC(n2cc(C(N)=O)c(Nc3ccc(Cl)cc3)n2)[C@@H](C#N)C1)C1(C)COC1` (single isomer, unassigned) [Example 28-232, 3-[(4-chlorophenyl)amino]-1-{(1S,2S,4S or 1R,2R,4R)-2-cyano-4-[methyl(3-methyloxetan-3-yl)amino]cyclohexyl}-1H-pyrazole-4-carboxamide], the pIC50 was 8.15.

Consider `CN(CC(F)(F)F)[C@H]1CCC(n2cc(C(N)=O)c(Nc3ccnc(F)c3)n2)[C@@H](C#N)C1` (single isomer, unassigned) [Example 28-233, 1-{(1S,2S,4S or 1R,2R,4R)-2-cyano-4-[methyl(2,2,2-trifluoroethyl)amino]cyclo-hexyl}-3-[(2-fluoropyridin-4-yl)amino]-1 H-pyrazole-4-carboxamide], for which the pIC50 was 8.22.

With `CC1(N[C@H]2CCC(n3cc(C(N)=O)c(Nc4ccc(Cl)cc4)n3)[C@@H](C#N)C2)CCOCC1` (single isomer, unassigned) [Example 28-235, 3-[(4-chlorophenyl)amino]-1-{(1S,2S,4S or 1R,2R,4R)-2-cyano-4-[(4-methyltetrahydro-2H-pyran-4-yl)amino]cyclohexyl}-1H-pyrazole-4-carboxamide], the pIC50 was 7.60.

Consider `CN(CC1CC1)[C@@H]1CC[C@H](n2cc(C(N)=O)c(Nc3ccc(C(F)(F)F)cc3)n2)[C@@H](C#N)C1` (single isomer, unassigned) [Example 30-2, 1-{(1S,2S,4R or 1R,2R,4S)-2-cyano-4-[(cyclopropyl-methyl)(methyl)amino]cyclo-hexyl}-3-{[4-(trifluoromethyl)phenyl]amino}-1H-pyrazole-4-carboxamide], for which the pIC50 is 6.87.

`N#C[C@H]1C[C@H](NCc2c(F)cccc2F)CC[C@@H]1n1cc(C(N)=O)c(Nc2ccc(C(F)(F)F)cc2)n1` (single isomer, unassigned) [Example 30-13, 1-{(1S,2S,4R or 1R,2R,4S)-2-cyano-4-[(2,6-difluoro-benzyl)amino]cyclohexyl}-3-{[4-(trifluoromethyl)phenyl]amino}-1H-pyrazole-4-carboxamide]: the pIC50 is 6.30.

Consider `N#C[C@H]1C[C@@H](O)CC[C@@H]1n1cc(C(N)=O)c(Nc2ccc(Cl)nc2)n1` (single isomer, unassigned) [Example 33-14, 3-[(6-chloropyridin-3-yl)amino]-1-[(1S,2S,4S or 1R,2R,4R)-2-cyano-4-hydroxycyclohexyl]-1H-pyrazole-4-carboxamide], for which the pIC50 is 7.85.

As for `N#C[C@H]1C[C@@H](O)CC[C@@H]1n1cc(C(N)=O)c(Nc2ccc(C3CC3)cc2)n1` (single isomer, unassigned) [Example 33-18, 1-[(1S,2S,4S or 1R,2R,4R)-2-cyano-4-hydroxycyclohexyl]-3-[(4-cyclopropylphenyl)amino]-1H-pyrazole-4-carboxamide], the pIC50 is 8.00.

Consider `N#C[C@@H]1C[C@H](C(=O)NC2CCC2)CC[C@H]1n1cc(C(N)=O)c(Nc2ccc(Cl)cc2)n1` (single isomer, unassigned) [Example 35-11, 3-[(4-chlorophenyl)amino]-1-[(1R,2R,4R or 1S,2S,4S)-2-cyano-4-(cyclobutylcarbamoyl)cyclohexyl]-1H-pyrazole-4-carboxamide], for which the pIC50 is 7.11.

For `N#C[C@H]1C[C@@H](C(=O)NC2CCC2)CC[C@@H]1n1cc(C(N)=O)c(Nc2ccc(Cl)cc2)n1` (single isomer, unassigned) [Example 35-12, 3-[(4-chlorophenyl)amino]-1-[(1S,2S,4S or 1R,2R,4R)-2-cyano-4-(cyclobutylcarbamoyl)cyclohexyl]-1H-pyrazole-4-carboxamide], the pIC50 is 6.99.

On to `N#C[C@@H]1CCCC[C@H]1n1cc(C(N)=O)c(Nc2ccc(S(=O)(=O)C(F)F)cc2)n1` (single isomer, unassigned) [Example 43-5, 1-[(1S,2S or 1R,2R)-2-cyanocyclohexyl]-3-({4-[(difluoromethyl)sulfonyl]phenyl}amino)-1H-pyrazole-4-carboxamide], for which the pIC50 is 7.55.

`N#C[C@@H]1CCCC[C@H]1n1cc(C(N)=O)c(Nc2ccc(S(=O)(=O)C(F)F)cc2)n1` (single isomer, unassigned) [Example 43-6, 1-[(1S,2S or 1R,2R)-2-cyanocyclohexyl]-3-({4-[(difluoromethyl)sulfonyl]phenyl}amino)-1H-pyrazole-4-carboxamide]: the pIC50 is 8.70.

On to `CC(C)(C)OC(=O)N[C@@H]1CC[C@H](C#N)C(n2cc(C(N)=O)c(Nc3ccc(F)cc3)n2)C1` (single isomer, unassigned) [Example 44-1, tert-Butyl[(1R,3S,4S or 1S,3R,4R)-3-{4-carbamoyl-3-[(4-fluorophenyl)amino]-1H-pyrazol-1-yl}-4-cyanocyclohexyl]carbamate], for which the pIC50 is 7.37.

On to `CC(C)(C)OC(=O)N[C@@H]1CC[C@H](C#N)C(n2cc(C(N)=O)c(Nc3ccc(F)cc3)n2)C1` (single isomer, unassigned) [Example 44-2, tert-Butyl[(1R,3S,4S or 1S,3R,4R)-3-{4-carbamoyl-3-[(4-fluorophenyl)amino]-1H-pyrazol-1-yl}-4-cyanocyclohexyl]carbamate], for which the pIC50 was 6.00.
